The record followed here is ChEMBL document CHEMBL3525998, “Metabolism of saikosaponin a in rats: diverse oxidations on the aglycone moiety in liver and intestine in addition to hydrolysis of glycosidic bonds” (Drug Metab Dispos, 2013).

Holding throughout (type): ADME, organism-based
The test system of data set [1] is Plasma. The data set can be described thus: Drug level in Sprague-Dawley rat plasma treated with saikosaponin a at 15 mg/kg, iv by LC-DAD-IT-TOF-MS analysis. More on the design: dose 15 mg/kg, route intravenous. The note with it: in vivo.
Data set [2] in a line: Drug excretion in Sprague-Dawley rat urine treated with saikosaponin a at 15 mg/kg, iv by LC-DAD-IT-TOF-MS analysis. More on the design: dose 15 mg/kg, route intravenous. As to conditions: in vivo.
Data set [3] can be described thus: Drug excretion in Sprague-Dawley rat feces treated with saikosaponin a at 15 mg/kg, iv by LC-DAD-IT-TOF-MS analysis. The note with it: in vivo. Set-up: dose 15 mg/kg, route intravenous.
Data set [4] can be described thus: Drug excretion in Sprague-Dawley rat feces treated with saikosaponin a at 50 mg/kg, po administered through gavage by LC-DAD-IT-TOF-MS analysis. More on the design: dose 50 mg/kg, route oral. As to conditions: in vivo.
The next data set is filed under the species Rattus norvegicus. Briefly: Drug level in Sprague-Dawley rat assessed as retention time treated with saikosaponin a by LC-DAD-IT-TOF-MS analysis.
Data set [5] is described as follows: Drug recovery in po dosed rat excreted feces measured over 0 to 24 hrs after drug administration by HPLC analysis relative to starting drug dose. The note with it: faeces, read-out: Drug recovery.
Data set [6] is described as follows: Drug excretion in Sprague-Dawley rat bile treated with saikosaponin a at 15 mg/kg, iv by LC-DAD-IT-TOF-MS analysis. The note with it: in vivo. Set-up: dose 15 mg/kg, route intravenous.
Data set [7] is described as follows: Drug excretion in Sprague-Dawley rat bile treated with saikosaponin a at 50 mg/kg, po administered through gavage by LC-DAD-IT-TOF-MS analysis. Set-up: dose 50 mg/kg, route oral. As to conditions: in vivo.
Data set [8] relates to Plasma. Briefly: Drug level in Sprague-Dawley rat plasma treated with saikosaponin a at 50 mg/kg, po administered through gavage by LC-DAD-IT-TOF-MS analysis. More on the design: dose 50 mg/kg, route oral. The note with it: in vivo.
Data set [9] in a line: Drug excretion in Sprague-Dawley rat urine treated with saikosaponin a at 50 mg/kg, po administered through gavage by LC-DAD-IT-TOF-MS analysis. More on the design: dose 50 mg/kg, route oral. As to conditions: in vivo.

Bounds are passed on as bounds.

Consider `C[C@H]1O[C@@H](O[C@H]2CC[C@@]3(C)[C@@H](CC[C@]4(C)[C@@H]3C=C[C@]35OC[C@@]6(CCC(C)(C)C[C@H]63)[C@@H](O)C[C@]54C)[C@]2(C)CO)[C@H](O)[C@@H](O)[C@H]1O`, for which the Drug metabolism entry with Plasma [1] and in the data set on Plasma [8] was “metabolite_detected” throughout. Besides, the Drug excretion result in [2], in [3], in data set [4], in data set [6], in data set [7] and in data set [9] was “metabolite_detected” each time. Further, the Retention_time in the data set filed under Rattus norvegicus is on record as 45.5 min. Moreover, the dose excreted in data set [5] is above 50%.

In the case of `CC1(C)CC[C@]23CO[C@@]4(C=C[C@@H]5[C@@]6(C)CCC(=O)[C@@](C)(CO)[C@@H]6CC[C@@]5(C)[C@]4(C)C[C@@H]2O)[C@@H]3C1`, the Drug excretion result in [4] and in [9] was “metabolite_detected” in each case. Also, in the data set filed under Rattus norvegicus, the Retention_time worked out at 52.3 min.

For `CC1(C)CC[C@]23CO[C@@]4(C=C[C@@H]5[C@@]6(C)CC[C@H](O)[C@@](C)(CO)[C@@H]6CC[C@@]5(C)[C@]4(C(=O)O)C[C@@H]2O)[C@@H]3C1`, the Drug excretion result in data set [3], in [4] and in [9] was “metabolite_detected” in each case. For the same molecule, the Retention_time in the data set filed under Rattus norvegicus amounted to 18.4 min.

As to `CC1(C)CC[C@]23CO[C@@]4(C=C[C@@H]5[C@@]6(C)C=C[C@H](O)[C@@](C)(CO)[C@@H]6CC[C@@]5(C)[C@]4(C)C[C@@H]2O)[C@@H]3C1`, the Drug excretion result in [4] and in data set [9] was “metabolite_detected” each time. Moreover, the Retention_time in the data set listed under Rattus norvegicus is 53.7 min.

On to `CC1(C)CC[C@]23CO[C@@]4(C=C[C@@H]5[C@@]6(C)CC[C@H](O)[C@@](C)(CO)[C@@H]6CC[C@@]5(C)[C@]4(C)C[C@@H]2O)[C@@H]3C1`, for which the Drug excretion entry in data set [3], in data set [4] and in [9] was “metabolite_detected” each time. Also, the Retention_time in the data set filed under Rattus norvegicus came to 48.3 min. For the same molecule, the dose excreted in [5] is above 50%.

Turning to `C[C@H]1O[C@@H](O[C@H]2CC[C@@]3(C)[C@@H](CC[C@]4(C)[C@@H]3CC=C3[C@@H]5CC(C)(C)CC[C@]5(CO)[C@@H](O)C[C@]34C)[C@]2(C)CO)[C@H](O)[C@@H](O[C@@H]2O[C@H](CO)[C@@H](O)[C@H](O)[C@H]2O)[C@H]1O`, the Retention_time in the data set filed under Rattus norvegicus is 22.9 min. In addition, the Drug excretion result in data set [6] was “metabolite_detected”.
